BindingDB's records for patent US11401286 (Tetra Discovery Partners, LLC, 2022)

Legend:
[1] = target: cAMP-specific 3',5'-cyclic phosphodiesterase 4B [S133D] (Human, UniProt Q07343, S133D); assay: Kinetic Assay
[2] = target: Isoform 7 of cAMP-specific 3',5'-cyclic phosphodiesterase 4D (Human, UniProt Q08499); assay: Kinetic Assay
Chain of Isoform 7 of cAMP-specific 3',5'-cyclic phosphodiesterase 4D (Q08499 as listed by the source): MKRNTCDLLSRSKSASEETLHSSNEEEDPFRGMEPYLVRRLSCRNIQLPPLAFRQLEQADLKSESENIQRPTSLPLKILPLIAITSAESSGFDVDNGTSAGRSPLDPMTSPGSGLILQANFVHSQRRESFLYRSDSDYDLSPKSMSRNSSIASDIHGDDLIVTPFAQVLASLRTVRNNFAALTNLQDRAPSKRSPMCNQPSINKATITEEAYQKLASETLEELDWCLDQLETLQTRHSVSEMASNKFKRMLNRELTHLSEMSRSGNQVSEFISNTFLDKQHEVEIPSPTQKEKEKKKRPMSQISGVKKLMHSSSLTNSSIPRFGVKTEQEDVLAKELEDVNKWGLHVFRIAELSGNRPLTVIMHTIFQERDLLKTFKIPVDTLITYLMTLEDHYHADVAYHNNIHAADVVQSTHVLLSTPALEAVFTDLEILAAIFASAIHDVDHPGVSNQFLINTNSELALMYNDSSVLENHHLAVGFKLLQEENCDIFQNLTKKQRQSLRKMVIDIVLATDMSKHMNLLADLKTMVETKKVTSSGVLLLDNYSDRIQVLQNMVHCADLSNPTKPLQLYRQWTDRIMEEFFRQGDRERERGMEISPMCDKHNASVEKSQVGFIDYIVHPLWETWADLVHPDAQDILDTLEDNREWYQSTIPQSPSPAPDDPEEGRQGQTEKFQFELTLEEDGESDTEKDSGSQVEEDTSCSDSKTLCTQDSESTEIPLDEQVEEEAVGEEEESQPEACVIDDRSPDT

Chain of cAMP-specific 3',5'-cyclic phosphodiesterase 4B [S133D] (Q07343 whole entry S133D, canonical isoform): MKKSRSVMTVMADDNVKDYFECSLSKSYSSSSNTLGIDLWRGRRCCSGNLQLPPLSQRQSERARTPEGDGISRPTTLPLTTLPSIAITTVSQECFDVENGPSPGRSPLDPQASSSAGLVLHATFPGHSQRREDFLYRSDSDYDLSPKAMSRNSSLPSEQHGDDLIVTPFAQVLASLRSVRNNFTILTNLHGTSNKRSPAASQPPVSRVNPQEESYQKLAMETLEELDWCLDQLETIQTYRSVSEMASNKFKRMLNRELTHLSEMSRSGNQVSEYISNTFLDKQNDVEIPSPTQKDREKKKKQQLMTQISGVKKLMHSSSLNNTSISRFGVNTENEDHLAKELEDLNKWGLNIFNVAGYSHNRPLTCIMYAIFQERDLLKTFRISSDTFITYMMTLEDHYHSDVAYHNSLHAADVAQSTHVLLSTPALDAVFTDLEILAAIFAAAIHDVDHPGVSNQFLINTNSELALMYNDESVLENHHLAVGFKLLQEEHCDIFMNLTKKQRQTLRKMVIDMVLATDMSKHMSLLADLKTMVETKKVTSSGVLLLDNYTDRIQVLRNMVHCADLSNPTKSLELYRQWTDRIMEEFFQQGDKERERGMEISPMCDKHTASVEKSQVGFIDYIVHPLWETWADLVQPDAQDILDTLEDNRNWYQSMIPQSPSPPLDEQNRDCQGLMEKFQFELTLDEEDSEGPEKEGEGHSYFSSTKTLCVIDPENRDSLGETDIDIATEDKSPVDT

IC50 [1] [nM]	IC50 [2] [nM]	Compound
< 1000	–	CCc1c(C)nc(-c2ccc(Cl)s2)nc1Nc1ccc(Cn2nccn2)cc1 [US11401286, Example 300]
> 1000	> 1000	Cc1nc(Nc2ccc(CC(=O)O)cc2)nc(-c2ccc(Cl)s2)n1 [US11401286, Example 22]
< 1000	> 1000	NC(=O)Cc1ccc(Nc2cc(C3CCCC3)nc3c2CCC3)cc1 [US11401286, Example 247]
< 1000	> 1000	N#CC1CCC(c2cc(Nc3ccc(CC(N)=O)cc3)c3c(n2)CCC3)C1 (centres undefined) [US11401286, Example 138]

Compound	IC50 [1] [nM]	IC50 [2] [nM]
OCCc1ccc(Nc2cc(-c3cccc(Cl)c3)nc3c2CCC3)cn1 [US11401286, Example 90]	> 1000	> 1000
